# Ends that are not written are not given here. Peptide text beside a SMILES is read from it. * marks the point of attachment. Cbz = O=C(OCc1ccccc1)*
# Experiments:
# [1] = system: proteasome; assay: Western blotting for Mcl-1 in Hela cells treated with proteasome inhibitor; assay type: cell-based, human; conditions: anti-Mcl-1 western blotting
# From the text: Proteins targeted for proteasome degradation are usually modified by a poly-ubiquitin chain (Hershko and Ciechanover, 1998). To test whether Mcl-1 is ubiquitinated, we treated Hela cells with a proteasome inhibitor MG132 to block the proteasome activity and performed western blotting analysis for Mcl-1 to test for the accumulation of higher molecular weight forms that could be ubiquitin modified. […] To verify these higher molecular weight bands were indeed caused by polyubiquitin conjugation of Mcl-1, the protein was immunoprecipitated by an anti-Mcl-1 antibody and the immuno-precipitate was probed by an anti-ubiquitin antibody.
# [2] = system: Mcl-1 and Mule; assay: Co-immunoprecipitation of Mule with Flag-Mcl-1 from Flag-Mcl-1 expressing cells; assay type: cell-based; conditions: anti-Flag immunoprecipitation
# From the text: We next tested whether Mule interacts with Mcl-1 in vivo. Cell extracts from Flag-Mcl-1 expressing cells were immunoprecipitated with an anti-Flag monoclonal antibody. The immunoprecipitates were then subjected to SDS-PAGE and immunoblotted with antibodies against Flag or Mule. The antibody against Flag precipitated Flag-Mcl-1 in Flag-Mcl-1 expressing cells but not in the control cells. The Flag antibody also precipitated Mule, and the amount of co-precipitated Mcl-1 and Mule increased upon treatment with the proteasome inhibitor MG132.
# [3] = system: U2OS cells; assay: Cell death induced by DNA damaging agents with Mule knocked down; assay type: cell-based, human; conditions: for cell death induced by the agent: Mule knocked down versus not
# Protocol: The Mule shRNA construct was co-transfected with tetracycline repressor expression construct into 5×10^5 attached U2OS cells grown in DMEM with 10% FBS using Lipofectamine transfection reagent (Invitrogen) according to the manufacturer's protocol. One day later, the cells were selected against 1 μg/ml blasticidine and 2 μg/ml puromycin. After two weeks, individual clones were lifted and tested for expression of tetracycline repressor. Positive clones were further tested for Mule shRNA expression. Clones were treated with 2 μg/ml tetracycline for 3 days. Cell extracts were collected and subjected to 6% SDS-PAGE and western blotting with anti-Mule monoclonal antibody. Clones with the best inducible knock down of Mule were chosen for further experiments. […] We then treated cells with their Mule level knocked down with several DNA damaging agents including UV-irradiation and two commonly used chemotherapeutic drugs etoposide and cisplatin. […] We therefore performed a detailed biochemical analysis in cells treated with this drug with or without Mule knocked down.
# [4] = system: caspase-3; assay: Caspase-3 activation (cleavage) and PARP cleavage after cisplatin treatment; assay type: cell-based, human
# From the text: We then treated cells with their Mule level knocked down with several DNA damaging agents including UV-irradiation and two commonly used chemotherapeutic drugs etoposide and cisplatin. […] We therefore performed a detailed biochemical analysis in cells treated with this drug with or without Mule knocked down.
# [5] = system: U2OS cells; assay: Colony growth 8 days after 6 hours of cisplatin treatment; assay type: cell-based, human; conditions: 6 hours treatment, 8 days culture
# Protocol: To test whether the delayed apoptosis when Mule was knocked down has a long last effect, cells were switched to fresh medium after 6 hours of cisplatin treatment and continued culture for 8 days.
# [6] = molecular target: T1, Mule (Homo sapiens); assay: In vitro Mcl-1 ubiquitination assay, reconstituted system, competition by BH3 peptides; assay type: biochemical; conditions: peptide at 4 μM
# T1 construct: The cDNA of full-length human Mule was subcloned into Sal I and Not I sites of pFastBac-1; made in house; host or cells: Sf21 insect cells, baculovirus (pFastBac-1)
# T1 sequence (Q07820 whole entry): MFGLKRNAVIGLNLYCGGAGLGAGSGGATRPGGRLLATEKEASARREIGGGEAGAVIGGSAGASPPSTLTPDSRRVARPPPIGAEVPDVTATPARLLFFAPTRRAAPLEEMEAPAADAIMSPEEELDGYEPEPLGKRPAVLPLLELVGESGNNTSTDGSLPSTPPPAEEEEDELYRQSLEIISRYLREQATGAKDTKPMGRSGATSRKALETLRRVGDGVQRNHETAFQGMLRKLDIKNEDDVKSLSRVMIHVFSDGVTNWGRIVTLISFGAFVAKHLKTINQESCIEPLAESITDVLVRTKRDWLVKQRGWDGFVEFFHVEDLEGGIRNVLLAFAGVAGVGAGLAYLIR
# Protocol: (§1) In vitro Ubiguitination assay: In 15 ul reaction, 200 ng of recombinant Flag-Mcl-1 is incubated with an ATP regenerating system (50 mM Tris pH 7.6, 5 mM MgCl2, 2 mM ATP, 10 mM creatine phosphate, 3.5 U/ml of creatine kinase), 10 μg of Methyl-Ubiquitin, 10 ng human E1, 100 ng Ubch7, 2 μM of ubiquitin aldehyde, and 10 μg of S100 or designated fractions, at 37° C. for one hour. After terminating the reactions with SDS sample buffer, reaction products were fractionated by SDS-PAGE (10%) and analyzed by western blotting with anti-Flag M2 antibody during purification and anti-Mcl-1 when purified components were used.
# We used methylated ubiquitin for further biochemical analysis because it gave clearer signal. Mule ubiquitinated Mcl-1 in a dose-dependent manner, and the ubiquitination activity relied on the presence of E1 and E2.
# The members of Bcl-2 family of proteins containing only the BH3 domain use this domain to interact with other family members. If Mule also uses its BH3 domain to interact with Mcl-1, a peptide containing this domain should compete for Mule-Mcl-1 interaction therefore blocking Mcl-1 ubiquitination in the reconstituted system. To test this hypothesis, we synthesized a 26 amino acid Mule BH3-containing peptide and a mutant peptide in which four hydrophobic residues required for protein-protein interaction were switched with […] (4E).
# [7] = molecular target: T2, Bax (Homo sapiens, UniProt Q07812); assay: Biotin-labeled BH3 peptide pull down from HeLa S100; assay type: binding
# T2 construct: endogenous in cells; host or cells: HeLa S100
# T2 sequence (Q07812 whole entry): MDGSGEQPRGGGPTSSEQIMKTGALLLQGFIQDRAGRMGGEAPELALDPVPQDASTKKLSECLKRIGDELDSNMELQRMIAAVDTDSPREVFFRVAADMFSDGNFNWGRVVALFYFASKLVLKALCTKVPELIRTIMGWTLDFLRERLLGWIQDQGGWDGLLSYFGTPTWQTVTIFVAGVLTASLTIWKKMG
# From the text: (§2) To examine whether BH3 domain of Mule is sufficient for interaction with Mcl-1, we used a biotin-labeled version of the 26 amino acids Mule BH3 peptide (aa 1969-1994) and the 4E mutant to pull down proteins from cell extracts.
# [8] = molecular target: T3, Bcl-2 (Homo sapiens, UniProt P10415); assay: as above; assay type: binding
# T3 construct: endogenous in cells; host or cells: HeLa S100
# T3 sequence (P10415 whole entry): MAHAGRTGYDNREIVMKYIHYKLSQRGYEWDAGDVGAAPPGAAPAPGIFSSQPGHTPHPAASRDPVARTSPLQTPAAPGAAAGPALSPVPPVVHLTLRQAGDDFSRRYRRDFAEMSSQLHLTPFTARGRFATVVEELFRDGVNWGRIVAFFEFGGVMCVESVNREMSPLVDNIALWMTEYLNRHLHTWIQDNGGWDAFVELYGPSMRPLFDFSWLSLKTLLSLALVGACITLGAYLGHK
# From the text: as §2
# [9] = molecular target: T4, Bcl-xL (Homo sapiens, UniProt Q07817); assay: as above; assay type: binding
# T4 construct: endogenous in cells; host or cells: HeLa S100
# T4 sequence (Q07817 whole entry): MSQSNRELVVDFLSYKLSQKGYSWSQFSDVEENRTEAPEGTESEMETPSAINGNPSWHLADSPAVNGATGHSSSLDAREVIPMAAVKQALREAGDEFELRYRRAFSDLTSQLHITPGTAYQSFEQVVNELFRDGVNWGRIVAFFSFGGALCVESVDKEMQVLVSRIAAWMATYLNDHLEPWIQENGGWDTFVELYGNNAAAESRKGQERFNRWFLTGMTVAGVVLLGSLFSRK
# From the text: as §2
# [10] = molecular target: T5, Mcl-1 (Homo sapiens, UniProt Q07820); assay: as above; assay type: binding; design: endogenous in cells; host or cells: HeLa S100
# T5 sequence (Q07820 whole entry): as the sequence (Q07820 whole entry) above
# From the text: as §2
# [11] = molecular target: T5, Mcl-1; assay: In vitro Mcl-1 ubiquitination by purified recombinant Mule; assay type: biochemical; conditions: in the presence of E1, Ubch7 (E2), ATP regenerating system; ubiquitin, methylated or GST-tagged ubiquitin
# Protocol: as §1
# The cDNA of full-length human Mule was subcloned into Sal I and Not I sites of pFastBac-1 (Invitrogen). Mule expression baculovirus were prepared according to manufacture's manual (Bac-to-Bac Baculovirus expression system, Invitrogen, Carlsbad, Calif.). Insect cells Sf21 were infected with the P3 virus. The cells were harvested after 2 days of infection. Cell pellet was re-suspended in buffer A and homogenized with a glass douncer (pellet of 1 L culture of infected Sf21 cells was resuspended in 50 ml of buffer A). The homogenate was centrifuged at 100,000 g (SW28 rotor, 25,000 rpm) for 1 hr. The S100 (2 g total protein) were filtered and loaded onto Q column (hand-packed 36 ml of Q Sepharose XL beads). […]
molecule,measurement,setting,value
CC(C)C[C@@H](C=O)NC(=O)[C@H](CC(C)C)NC(=O)[C@H](CC(C)C)NC(=O)OCc1ccccc1 [MG132] (Cbz-Leu-Leu-Leu-aldehyde),accumulation of higher molecular weight (polyubiquitinated) forms of Mcl-1,[1],Higher molecular weight protein bands were detected
same,amount of co-precipitated Mcl-1 and Mule,[2],increased
N.N.[Cl][Pt][Cl] [cisplatin],ability to induce apoptosis among the DNA damaging agents,[3]; Mule knocked down,least ability to induce apoptosis
same,cell death induced by the agent,[3],reduced when Mule was knocked down
same,start of (weak) caspase-3 activation after treatment,[4]; Mule knocked down,8 h
same,caspase-3 activation,"[4]; Mule knocked down, 6 hours after treatment",did not see any caspase-3 activation
same,start of caspase-3 activation after treatment,[4]; cells with Mule present,4 h
same,cleavage of PARP,[4]; with or without Mule knocked down,showed the same pattern
same,colonies relative to cells containing Mule,[5]; Mule knocked down,more than nine fold more colonies
same,colonies grown up,[5]; cells containing Mule,few if any colonies
COc1cc([C@@H]2c3cc4c(cc3[C@@H](O[C@@H]3O[C@@H]5CO[C@@H](C)O[C@H]5[C@H](O)[C@H]3O)[C@H]3COC(=O)[C@H]23)OCO4)cc(OC)c1O [etoposide],cell death induced by the agent,[3],reduced when Mule was knocked down
"Mule BH3 peptide: synthesized 26 amino acid Mule BH3-containing peptide (aa 1969-1994); biotin-labeled version used for pull down (PGVMTQEVGQLLQDMGDDVYQQYRSL; also: biotin-labeled (position not given here); UniProt Q7Z6Z7 1969-1994, looked up, fragment)",block of Mcl-1 ubiquitination,[6],efficiently block Mcl-1 ubiquitination
same,pull down of Bax,[7],"not Bcl-xL, Bcl-2, and Bax"
same,pull down of Bcl-2,[8],"not Bcl-xL, Bcl-2, and Bax"
same,pull down of Bcl-xL,[9],"not Bcl-xL, Bcl-2, and Bax"
same,pull down of Mcl-1,[10],specifically pulled down Mcl-1
"recombinant Mule: purified recombinant full-length human Mule protein, baculovirus-based expression system; Mcl-1 ubiquitin ligase E3",stimulation of Mcl-1 ubiquitination,[11],able to stimulate Mcl-1 ubiquitination

# From patent US7303887B2, “Mule: Mcl-1 ubiquitination ligase E3” (Board of Regents, The University of Texas System, priority 2005, dated 2007)
